{"source": "ChEMBL document CHEMBL1833798", "about": "“Coprismycins A and B, neuroprotective phenylpyridines from the dung beetle-associated bacterium, Streptomyces sp” (Bioorg Med Chem Lett, 2011)", "key": {"A549": {"system": "A549", "test": "Cytotoxicity against human A549 cells assessed as inhibition of cell proliferation", "assay_type": "ADME, cell-based"}, "MCF7": {"system": "MCF7", "test": "Cytotoxicity against human MCF7 cells assessed as inhibition of cell proliferation", "assay_type": "ADME, cell-based"}, "SH-SY5Y [1]": {"system": "SH-SY5Y", "test": "Cytotoxicity against human SH-SY5Y cells assessed as cell viability at 1 to 5 uM after 24 hrs", "assay_type": "cell-based"}, "HepG2": {"system": "HepG2", "test": "Cytotoxicity against human HepG2 cells assessed as inhibition of cell proliferation", "assay_type": "ADME, cell-based"}, "HCT-116": {"system": "HCT-116", "test": "Cytotoxicity against human HCT116 cells assessed as inhibition of cell proliferation", "assay_type": "ADME, cell-based"}, "AGS": {"system": "AGS", "test": "Cytotoxicity against human AGS cells assessed as inhibition of cell proliferation", "assay_type": "ADME, cell-based"}, "SH-SY5Y [2]": {"system": "SH-SY5Y", "test": "Neuroprotective activity against MPP-induced neurotoxicity in human SH-SY5Y cells assessed as increase in cell viability pretreated for 2 hrs before MPP challenge measured after 48 hrs", "assay_type": "functional, cell-based"}, "SH-SY5Y [3]": {"system": "SH-SY5Y", "test": "Neuroprotective activity against MPP-induced neurotoxicity in human SH-SY5Y cells assessed as increase in cell viability at 5 uM pretreated for 2 hrs before MPP challenge measured after 48 hrs relative to control", "assay_type": "functional"}, "in vitro": {"test": "in vitro", "conditions": "human, HCT116 cells; call rule not given here"}, "SH-SY5Y [4]": {"system": "SH-SY5Y", "test": "Neuroprotective activity against MPP-induced neurotoxicity in human SH-SY5Y cells assessed as decrease in cell viability at 5 uM pretreated for 2 hrs before MPP challenge measured after 48 hrs relative to control", "assay_type": "functional"}, "SH-SY5Y [5]": {"system": "SH-SY5Y", "test": "Neuroprotective activity against MPP-induced neurotoxicity in human SH-SY5Y cells assessed as increase in cell viability at 2.5 uM pretreated for 2 hrs before MPP challenge measured after 48 hrs relative to control", "assay_type": "functional"}, "SH-SY5Y [6]": {"system": "SH-SY5Y", "test": "Cytotoxicity against human SH-SY5Y cells assessed as cell viability at 5 uM after 48 hrs", "assay_type": "cell-based"}}, "data": [{"smiles": "COc1cc(-c2ccccn2)nc2cnsc12", "values": [{"measurement": "IC50", "setting": "A549", "result": "Not Active"}, {"measurement": "IC50", "setting": "MCF7", "result": "Not Active"}, {"measurement": "Activity", "setting": "SH-SY5Y [1]", "result": "Non-toxic"}, {"measurement": "IC50", "setting": "HepG2", "result": "Not Active"}, {"measurement": "IC50", "setting": "HCT-116", "result": "Not Active"}, {"measurement": "IC50", "setting": "AGS", "result": "Not Active"}, {"measurement": "Activity", "setting": "SH-SY5Y [2]", "result": "Dose-dependent effect"}, {"measurement": "Activity", "setting": "SH-SY5Y [3]", "result": 80, "unit": "%"}]}, {"smiles": "COc1cc(-c2ccccn2)nc(C#N)c1SC", "values": [{"measurement": "IC50", "setting": "A549", "result": "Not Active"}, {"measurement": "IC50", "setting": "MCF7", "result": "Not Active"}, {"measurement": "Activity", "setting": "SH-SY5Y [1]", "result": "Non-toxic"}, {"measurement": "IC50", "setting": "HepG2", "result": "Not Active"}, {"measurement": "IC50", "setting": "HCT-116", "result": "Not Active"}, {"measurement": "IC50", "setting": "AGS", "result": "Not Active"}, {"measurement": "Activity", "setting": "SH-SY5Y [2]", "result": "Dose-dependent effect"}, {"measurement": "inhibition at 50 µM", "setting": "in vitro", "result": 7.37, "unit": "%"}, {"measurement": "Activity", "setting": "SH-SY5Y [3]", "result": 83.3, "unit": "%"}]}, {"smiles": "COc1cc(-c2ccccc2)nc(/C=N/O)c1SC", "note": "[COPRISMYCIN A]", "values": [{"measurement": "IC50", "setting": "A549", "result": "Not Active"}, {"measurement": "IC50", "setting": "MCF7", "result": "Not Active"}, {"measurement": "Activity", "setting": "SH-SY5Y [1]", "result": "Non-toxic"}, {"measurement": "IC50", "setting": "HepG2", "result": "Not Active"}, {"measurement": "IC50", "setting": "HCT-116", "result": "Not Active"}, {"measurement": "IC50", "setting": "AGS", "result": "Not Active"}, {"measurement": "Activity", "setting": "SH-SY5Y [2]", "result": "Dose-dependent effect"}, {"measurement": "Activity", "setting": "SH-SY5Y [3]", "result": 80.3, "unit": "%"}]}, {"smiles": "COc1cc(-c2ccccc2)nc(/C=N\\O)c1SC", "note": "[COPRISMYCIN B]", "values": [{"measurement": "IC50", "setting": "A549", "result": "Not Active"}, {"measurement": "IC50", "setting": "MCF7", "result": "Not Active"}, {"measurement": "Activity", "setting": "SH-SY5Y [4]", "result": 69.8, "unit": "%"}, {"measurement": "Activity", "setting": "SH-SY5Y [1]", "result": "Non-toxic"}, {"measurement": "IC50", "setting": "HepG2", "result": "Not Active"}, {"measurement": "IC50", "setting": "HCT-116", "result": "Not Active"}, {"measurement": "IC50", "setting": "AGS", "result": "Not Active"}, {"measurement": "Activity", "setting": "SH-SY5Y [2]", "result": "Dose-dependent effect"}, {"measurement": "Activity", "setting": "SH-SY5Y [5]", "result": 88.4, "unit": "%"}, {"measurement": "Activity", "setting": "SH-SY5Y [6]", "result": "Toxic"}]}]}
